Test [1] addresses Maternal embryonic leucine zipper kinase (Homo sapiens) (UniProt Q14680). Nature of the test: Selectivity interaction (Ambit KINOMEscan and KiNATiv profiling in Jurkat cells) EUB0000090b MELK. Particulars: at 1 µM. The class given is cell-based.
Test [2] concerns the target Tyrosine-protein kinase Srms (Homo sapiens) (UniProt Q9H3Y6). Nature of the test: Selectivity interaction (Ambit KINOMEscan and KiNATiv profiling in Jurkat cells) EUB0000090b SRMS. Particulars: at 1 µM. The test is classed as cell-based.
Test [3] addresses Mitogen-activated protein kinase 9 (Homo sapiens, UniProt P45984). The experiment in a line: Selectivity interaction (KinomeScan (DiscoverX)) EUB0000607a MAPK9. Particulars: at 10 µM.
Test [4] concerns the target Phosphorylase b kinase gamma catalytic chain, skeletal muscle/heart isoform (Homo sapiens) (UniProt Q16816). Nature of the test: Selectivity interaction (SelectScreen profiling (Invitrogen)) EUB0000607a PHKG1. Particulars: at 2 µM.
For test [5], the system named is Epidermal growth factor receptor (Homo sapiens), P00533 [UNDEFINED MUTATION]. The experiment in a line: Selectivity interaction (KinomeScan (DiscoverX)) EUB0000229b EGFR. The following applies: at 1 µM.
Test [6] has as its target T1, Inhibitor of nuclear factor kappa-B kinase subunit epsilon (Homo sapiens) (UniProt Q14164).
T1 sequence (whole entry): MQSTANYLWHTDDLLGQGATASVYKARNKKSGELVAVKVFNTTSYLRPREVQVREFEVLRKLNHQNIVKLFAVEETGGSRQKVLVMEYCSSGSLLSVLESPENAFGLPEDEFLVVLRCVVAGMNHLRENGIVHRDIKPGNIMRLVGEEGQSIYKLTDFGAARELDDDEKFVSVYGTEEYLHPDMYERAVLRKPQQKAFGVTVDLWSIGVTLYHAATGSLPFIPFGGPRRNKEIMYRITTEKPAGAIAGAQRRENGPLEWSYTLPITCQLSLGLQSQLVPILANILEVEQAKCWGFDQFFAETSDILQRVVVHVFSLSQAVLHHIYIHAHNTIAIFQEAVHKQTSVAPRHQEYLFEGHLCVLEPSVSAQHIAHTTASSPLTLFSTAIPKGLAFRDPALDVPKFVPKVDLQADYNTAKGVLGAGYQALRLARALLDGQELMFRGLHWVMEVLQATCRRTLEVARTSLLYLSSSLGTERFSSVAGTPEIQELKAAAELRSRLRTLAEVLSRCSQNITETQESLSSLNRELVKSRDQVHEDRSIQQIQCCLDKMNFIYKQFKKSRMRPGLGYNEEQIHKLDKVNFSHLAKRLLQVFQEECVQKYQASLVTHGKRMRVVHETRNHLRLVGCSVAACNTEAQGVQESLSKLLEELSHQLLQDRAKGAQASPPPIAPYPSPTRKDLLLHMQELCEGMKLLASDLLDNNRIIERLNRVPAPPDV
Nature of the test: Selectivity interaction (KinomeScan (DiscoverX)) EUB0001079a IKBKE. Particulars: at 1 µM.

Test [7] concerns the target Mitogen-activated protein kinase kinase kinase 20 (Homo sapiens) (UniProt Q9NYL2). The experiment in a line: Selectivity interaction (KinomeScan (DiscoverX)) EUB0001079a MAP3K20. The following applies: at 1 µM.
Test [8] deals with Cyclin-dependent kinase 13 (Homo sapiens, UniProt Q14004). The experiment in a line: Selectivity interaction (ActivX KiNativ screen (ex vivo kinase selectivity in human PBMCs)) EUB0001619a CDK13. The class given is cell-based. The following applies: PBMC, at 1 µM.
Test [9] addresses T2, Uncharacterized serine/threonine-protein kinase SBK3 (Homo sapiens) (UniProt P0C264).
T2 sequence (whole entry): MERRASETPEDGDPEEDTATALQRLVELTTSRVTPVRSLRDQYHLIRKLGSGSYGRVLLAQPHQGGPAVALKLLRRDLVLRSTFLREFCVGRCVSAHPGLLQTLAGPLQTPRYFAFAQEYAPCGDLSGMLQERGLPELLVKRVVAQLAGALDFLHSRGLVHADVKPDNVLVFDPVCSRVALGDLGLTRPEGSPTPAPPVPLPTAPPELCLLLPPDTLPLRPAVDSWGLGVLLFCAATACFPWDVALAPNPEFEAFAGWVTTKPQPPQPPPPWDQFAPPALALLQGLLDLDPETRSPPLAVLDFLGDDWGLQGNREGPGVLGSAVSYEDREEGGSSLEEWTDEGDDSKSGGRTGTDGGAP
The experiment in a line: Selectivity interaction (KinomeScan (DiscoverX)) EUB0001619a SBK3. Particulars: at 1 µM.

Test [10] has as its target T3, Inhibitor of nuclear factor kappa-B kinase subunit beta (Homo sapiens) (UniProt O14920).
T3 sequence (whole entry): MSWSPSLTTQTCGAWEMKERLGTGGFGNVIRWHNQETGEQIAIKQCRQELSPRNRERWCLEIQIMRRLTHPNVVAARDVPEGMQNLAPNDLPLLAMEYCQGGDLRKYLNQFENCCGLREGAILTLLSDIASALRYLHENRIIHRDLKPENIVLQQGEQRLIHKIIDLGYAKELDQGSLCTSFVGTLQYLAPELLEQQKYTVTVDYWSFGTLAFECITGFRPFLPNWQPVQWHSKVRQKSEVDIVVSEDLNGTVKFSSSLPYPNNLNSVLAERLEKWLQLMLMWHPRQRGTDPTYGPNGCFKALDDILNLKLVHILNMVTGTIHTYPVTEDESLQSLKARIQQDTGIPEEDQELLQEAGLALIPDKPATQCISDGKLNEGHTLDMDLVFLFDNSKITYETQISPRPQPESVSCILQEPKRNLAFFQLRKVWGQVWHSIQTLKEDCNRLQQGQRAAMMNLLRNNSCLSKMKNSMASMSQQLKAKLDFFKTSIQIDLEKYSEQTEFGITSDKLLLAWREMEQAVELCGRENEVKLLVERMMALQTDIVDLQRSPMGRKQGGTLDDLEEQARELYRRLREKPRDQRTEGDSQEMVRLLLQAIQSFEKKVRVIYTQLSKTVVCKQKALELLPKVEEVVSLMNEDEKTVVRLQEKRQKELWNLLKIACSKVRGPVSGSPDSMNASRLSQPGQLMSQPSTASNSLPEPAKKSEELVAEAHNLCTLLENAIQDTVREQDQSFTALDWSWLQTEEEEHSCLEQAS
The experiment in a line: Selectivity interaction (Kinase panel (literature)) EUB0001199aCl IKBKB. Particulars: at 1 µM.

Test [11] concerns the target Dual specificity mitogen-activated protein kinase kinase 2 (Homo sapiens) (UniProt P36507). Nature of the test: Selectivity interaction (ActivX KiNativ screen (kinase selectivity in THP-1 cell lysates)) EUB0000639a MAP2K2. The following applies: lysate, at 0.2 µM. The class given is subcellular.
Test [12] addresses Activin receptor type-1-like (Homo sapiens) (UniProt P37023). Particulars: at 10 µM.
For test [13], the target named is Tyrosine-protein kinase Fyn (Homo sapiens) (UniProt P06241). Nature of the test: Selectivity interaction (Millipore kinase profiler) EUB0000124b FYN. Particulars: at 10 µM.
Test [14] deals with Dual specificity mitogen-activated protein kinase kinase 1 (Homo sapiens, UniProt Q02750). Nature of the test: Selectivity interaction (KinomeScan (DiscoverX)) EUB0001049a MAP2K1. Particulars: at 1 µM.
Test [15] concerns the target Phosphatidylinositol 3-kinase catalytic subunit type 3 (Homo sapiens, UniProt Q8NEB9). Nature of the test: Selectivity interaction (ProQinase) EUB0000171b PIK3C3.
For test [16], the target named is STE20-like serine/threonine-protein kinase (Homo sapiens, UniProt Q9H2G2). Nature of the test: Selectivity interaction (KinomeScan (DiscoverX)) EUB0000618a SLK. Particulars: at 10 µM.

Sequence of Phosphatidylinositol 3-kinase catalytic subunit type 3 (Q8NEB9 whole entry): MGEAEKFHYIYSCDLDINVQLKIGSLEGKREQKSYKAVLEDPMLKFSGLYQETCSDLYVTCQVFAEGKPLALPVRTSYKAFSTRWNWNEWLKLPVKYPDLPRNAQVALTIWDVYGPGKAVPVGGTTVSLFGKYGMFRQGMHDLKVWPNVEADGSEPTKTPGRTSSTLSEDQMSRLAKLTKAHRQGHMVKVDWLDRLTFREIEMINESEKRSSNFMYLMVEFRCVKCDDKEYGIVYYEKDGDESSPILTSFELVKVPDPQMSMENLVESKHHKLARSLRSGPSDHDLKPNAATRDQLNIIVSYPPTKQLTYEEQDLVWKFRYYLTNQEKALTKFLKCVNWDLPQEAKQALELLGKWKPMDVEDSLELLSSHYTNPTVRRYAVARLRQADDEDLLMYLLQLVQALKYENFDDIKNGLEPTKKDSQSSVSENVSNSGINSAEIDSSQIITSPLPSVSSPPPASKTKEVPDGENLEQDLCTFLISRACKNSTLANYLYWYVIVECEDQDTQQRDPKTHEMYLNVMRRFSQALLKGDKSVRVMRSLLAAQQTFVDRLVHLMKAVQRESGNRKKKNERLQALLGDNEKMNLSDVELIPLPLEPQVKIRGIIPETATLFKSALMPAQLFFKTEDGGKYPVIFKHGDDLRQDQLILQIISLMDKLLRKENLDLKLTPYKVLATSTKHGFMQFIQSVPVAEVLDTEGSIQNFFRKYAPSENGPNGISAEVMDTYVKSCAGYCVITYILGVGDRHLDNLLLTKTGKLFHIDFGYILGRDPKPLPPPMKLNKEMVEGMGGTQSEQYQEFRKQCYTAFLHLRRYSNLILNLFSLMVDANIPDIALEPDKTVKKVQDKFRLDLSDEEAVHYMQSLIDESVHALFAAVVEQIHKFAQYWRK
Sequence of Mitogen-activated protein kinase 9 (P45984 whole entry, looked up, canonical isoform): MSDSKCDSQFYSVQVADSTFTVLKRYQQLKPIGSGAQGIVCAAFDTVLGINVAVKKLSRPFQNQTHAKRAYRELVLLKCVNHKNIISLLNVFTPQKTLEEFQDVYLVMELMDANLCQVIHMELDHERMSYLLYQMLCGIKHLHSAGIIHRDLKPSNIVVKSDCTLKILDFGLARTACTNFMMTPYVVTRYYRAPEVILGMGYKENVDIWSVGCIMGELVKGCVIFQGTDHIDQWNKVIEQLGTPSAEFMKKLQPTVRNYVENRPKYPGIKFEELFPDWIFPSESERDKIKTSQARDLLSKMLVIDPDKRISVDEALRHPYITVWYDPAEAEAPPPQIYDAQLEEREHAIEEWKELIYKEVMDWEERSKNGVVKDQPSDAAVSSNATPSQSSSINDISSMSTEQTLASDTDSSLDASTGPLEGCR
Sequence of Epidermal growth factor receptor (Homo sapiens), P00533 [UNDEFINED MUTATION] (P00533 whole entry, looked up, change not shown): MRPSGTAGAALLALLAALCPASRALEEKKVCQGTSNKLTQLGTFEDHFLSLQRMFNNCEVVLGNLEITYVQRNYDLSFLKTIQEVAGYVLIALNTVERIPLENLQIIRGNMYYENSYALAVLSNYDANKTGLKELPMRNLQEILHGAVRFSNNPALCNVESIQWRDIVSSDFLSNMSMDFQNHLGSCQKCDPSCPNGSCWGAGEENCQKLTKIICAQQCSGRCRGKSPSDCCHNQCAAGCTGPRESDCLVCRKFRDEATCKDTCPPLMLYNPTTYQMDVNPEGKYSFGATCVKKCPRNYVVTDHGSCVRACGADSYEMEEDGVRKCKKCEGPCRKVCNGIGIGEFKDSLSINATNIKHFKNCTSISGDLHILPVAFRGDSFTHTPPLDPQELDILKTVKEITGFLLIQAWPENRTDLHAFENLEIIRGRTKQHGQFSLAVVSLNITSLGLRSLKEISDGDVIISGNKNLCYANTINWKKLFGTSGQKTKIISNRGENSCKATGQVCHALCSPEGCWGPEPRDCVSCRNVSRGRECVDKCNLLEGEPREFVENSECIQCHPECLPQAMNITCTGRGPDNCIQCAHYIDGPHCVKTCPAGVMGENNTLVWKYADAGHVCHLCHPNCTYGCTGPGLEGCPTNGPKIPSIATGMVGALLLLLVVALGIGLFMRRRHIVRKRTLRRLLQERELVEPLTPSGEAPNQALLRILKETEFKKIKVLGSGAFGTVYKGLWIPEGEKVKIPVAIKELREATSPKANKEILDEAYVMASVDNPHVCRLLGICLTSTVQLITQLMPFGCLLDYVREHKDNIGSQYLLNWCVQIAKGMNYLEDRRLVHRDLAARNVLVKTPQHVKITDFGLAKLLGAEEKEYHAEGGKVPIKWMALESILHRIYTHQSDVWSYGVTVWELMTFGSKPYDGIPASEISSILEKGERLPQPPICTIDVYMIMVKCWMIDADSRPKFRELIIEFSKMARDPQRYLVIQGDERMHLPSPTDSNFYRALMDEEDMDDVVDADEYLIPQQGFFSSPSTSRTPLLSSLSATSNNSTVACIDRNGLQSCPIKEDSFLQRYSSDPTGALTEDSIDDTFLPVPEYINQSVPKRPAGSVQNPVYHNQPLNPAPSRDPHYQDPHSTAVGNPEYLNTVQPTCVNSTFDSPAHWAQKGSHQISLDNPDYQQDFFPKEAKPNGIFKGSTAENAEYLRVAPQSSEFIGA
Sequence of Activin receptor type-1-like (Homo sapiens) (P37023 whole entry): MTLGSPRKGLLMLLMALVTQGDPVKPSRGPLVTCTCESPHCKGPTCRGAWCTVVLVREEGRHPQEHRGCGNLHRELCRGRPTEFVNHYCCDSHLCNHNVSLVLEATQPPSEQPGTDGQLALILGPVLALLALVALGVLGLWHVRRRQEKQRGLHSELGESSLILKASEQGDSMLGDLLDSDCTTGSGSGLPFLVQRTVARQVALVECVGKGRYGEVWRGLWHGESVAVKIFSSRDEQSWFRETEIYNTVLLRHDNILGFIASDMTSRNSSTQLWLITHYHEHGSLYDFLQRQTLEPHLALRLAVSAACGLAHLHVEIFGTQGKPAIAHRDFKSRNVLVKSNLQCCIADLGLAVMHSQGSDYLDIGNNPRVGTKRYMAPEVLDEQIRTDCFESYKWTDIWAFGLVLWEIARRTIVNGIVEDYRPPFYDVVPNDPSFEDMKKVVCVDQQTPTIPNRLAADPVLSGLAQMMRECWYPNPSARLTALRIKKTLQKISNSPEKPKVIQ
Sequence of Dual specificity mitogen-activated protein kinase kinase 2 (Homo sapiens) (P36507 whole entry): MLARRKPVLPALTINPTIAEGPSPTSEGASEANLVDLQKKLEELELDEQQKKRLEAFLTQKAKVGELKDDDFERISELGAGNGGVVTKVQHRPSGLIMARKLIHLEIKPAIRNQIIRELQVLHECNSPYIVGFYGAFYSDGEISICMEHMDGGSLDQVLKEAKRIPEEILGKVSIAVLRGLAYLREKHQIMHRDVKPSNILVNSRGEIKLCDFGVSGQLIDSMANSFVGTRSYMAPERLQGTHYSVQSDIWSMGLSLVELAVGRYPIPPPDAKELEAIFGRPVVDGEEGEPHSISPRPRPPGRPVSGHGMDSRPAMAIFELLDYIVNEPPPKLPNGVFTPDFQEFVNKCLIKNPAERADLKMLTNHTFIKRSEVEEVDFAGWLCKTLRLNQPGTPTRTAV
Sequence of Maternal embryonic leucine zipper kinase (Homo sapiens) (Q14680 whole entry, looked up): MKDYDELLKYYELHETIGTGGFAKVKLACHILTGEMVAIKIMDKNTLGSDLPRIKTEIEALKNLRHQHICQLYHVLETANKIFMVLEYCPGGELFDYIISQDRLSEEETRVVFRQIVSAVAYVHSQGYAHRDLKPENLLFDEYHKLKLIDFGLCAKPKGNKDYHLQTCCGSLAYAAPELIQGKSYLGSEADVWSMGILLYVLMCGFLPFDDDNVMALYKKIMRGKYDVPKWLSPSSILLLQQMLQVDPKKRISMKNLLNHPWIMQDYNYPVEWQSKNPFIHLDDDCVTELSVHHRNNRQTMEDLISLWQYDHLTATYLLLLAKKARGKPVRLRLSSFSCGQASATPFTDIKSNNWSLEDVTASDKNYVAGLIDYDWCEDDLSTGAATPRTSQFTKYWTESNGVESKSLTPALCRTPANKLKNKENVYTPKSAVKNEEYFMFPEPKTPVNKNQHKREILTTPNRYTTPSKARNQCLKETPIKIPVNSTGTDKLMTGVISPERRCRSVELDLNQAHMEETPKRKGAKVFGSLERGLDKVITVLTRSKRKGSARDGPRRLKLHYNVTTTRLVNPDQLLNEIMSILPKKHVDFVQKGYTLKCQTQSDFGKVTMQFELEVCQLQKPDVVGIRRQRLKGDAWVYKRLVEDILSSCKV
Sequence of Mitogen-activated protein kinase kinase kinase 20 (Homo sapiens) (Q9NYL2 2-800 limits assumed): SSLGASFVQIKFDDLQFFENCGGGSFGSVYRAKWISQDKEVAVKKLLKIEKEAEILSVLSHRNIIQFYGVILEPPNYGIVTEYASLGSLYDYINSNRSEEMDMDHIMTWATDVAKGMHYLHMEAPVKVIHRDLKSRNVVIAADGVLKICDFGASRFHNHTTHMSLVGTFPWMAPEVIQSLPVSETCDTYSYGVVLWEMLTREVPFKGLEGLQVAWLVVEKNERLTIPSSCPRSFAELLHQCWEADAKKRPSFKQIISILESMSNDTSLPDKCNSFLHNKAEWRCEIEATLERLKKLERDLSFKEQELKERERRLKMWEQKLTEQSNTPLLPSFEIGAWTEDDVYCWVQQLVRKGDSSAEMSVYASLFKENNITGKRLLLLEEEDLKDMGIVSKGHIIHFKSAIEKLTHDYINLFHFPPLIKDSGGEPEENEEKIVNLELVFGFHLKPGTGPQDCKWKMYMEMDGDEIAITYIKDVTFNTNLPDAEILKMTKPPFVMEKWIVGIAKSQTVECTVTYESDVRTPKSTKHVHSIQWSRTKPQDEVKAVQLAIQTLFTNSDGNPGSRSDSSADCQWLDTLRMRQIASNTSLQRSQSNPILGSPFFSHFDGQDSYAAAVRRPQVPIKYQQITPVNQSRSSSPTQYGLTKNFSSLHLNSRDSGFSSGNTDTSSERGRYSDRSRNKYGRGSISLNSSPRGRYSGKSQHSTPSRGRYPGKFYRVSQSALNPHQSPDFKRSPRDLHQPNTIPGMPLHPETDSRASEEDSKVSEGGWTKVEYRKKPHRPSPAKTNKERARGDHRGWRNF

Consider `CN(C)C/C=C/C(=O)Nc1ccc(C(=O)N2CCCC(Nc3ncc(Cl)c(-c4c[nH]c5ccccc45)n3)C2)cc1` (configuration not stated), for which the results for the % of control in [1] and in [2] were 75% and 99%, respectively.

As for `CNC(=O)Nc1ccc(-c2nc(N3CC4CCC(C3)O4)c3cnn(C4CCC5(CC4)OCCO5)c3n2)cc1`, the % of control in test [3] was 85%. The compound further came in with a % of inhibition in test [4] of 7%.

`COc1cc(N(C)c2ccnc3ccc(C(F)(F)F)cc23)cc(OC)c1OC`: in test [5], the % binding came out at 98%.

For `Nc1cnc(N2CCc3cc(S(=O)(=O)Nc4c(F)cc(Cl)cc4F)cc(N4CCCC4=O)c32)nc1` [TP-020n], the % of control in test [6] and in test [7] was 95% in each case.

As to `N#Cc1cccc(-c2c[nH]c3ncnc(N4CCOCC4)c23)c1`, the % of inhibition in test [8] was found to be 3%. Also, the % of control in test [9] is 100%.

Take `CN1Cc2nccc(-c3cn(C)nc3-c3ccc(F)cc3)c2C1=O`: the % of inhibition in test [10] is 4%.

In test [11], `CC[C@@H]1[C@H](F)C(=O)N[C@@H]1COc1nccc2cc(C(N)=O)c(OC)cc12` [ZIMLOVISERTIB] showed a % of inhibition of 11.6%.

Consider `CCN(CC)CCCCNc1ncc2cc(-c3cc(OC)cc(OC)c3)c(NC(=O)NC(C)(C)C)nc2n1`, for which, in test [12], the % of control was 100%.

In [13], `CC(=O)Nc1cccc(-n2c(=O)n(C3CC3)c(=O)c3c(Nc4ccc(I)cc4F)n(C)c(=O)c(C)c32)c1` yielded a % of control of 101%.

On to `COc1cc(Nc2nc(C)cc(-c3cnn4nc(OC)ccc34)n2)cc(C(F)(F)F)c1`, for which the % of control in test [14] was determined as 80%.

As for `C=CC(=O)Nc1cccc(C(=O)Nc2ccc(Nc3cc(-c4[nH]c(SC)nc4C)ccn3)cc2)c1`, the % of control was determined as 108% in [15] (at 1 µM) and 103% in test [15] (at 5 µM).

The compound `O[C@H]1CC[C@H](Nc2ncc3nc(Nc4c(F)cc(F)cc4F)n([C@H]4CCOC4)c3n2)CC1` gave a % of control in test [16] of 88%.

The record behind these values is ChEMBL document CHEMBL5465560, “Selectivity Literature for EUbOPEN Chemogenomic Library” (2024).
